# Values joined by “and” are separate entries in the source; they are usually repeats but may differ in a detail not shown here. Equal entries are not always repeated. “Also recorded” adds a separate entry of the source.
# Columns and labels:
# [1] = Skin permeation study, Franz diffusion cell; assay type: in vitro ADME, porcine; details: for Cumulative amount at 8th hour: 1% w/v in deionized water; for Cumulative amount at 8th hour / Permeated through skin into receptor / Recovered in donor compartment / Recovered in skin / Recovered in skin outside diffusion area / Recovered in skin swabs / Recovered on parafilm and in washes / Cumulative amount comparison of PPD vs derivatives (times less than PPD): 8 h; for Permeated through skin into receptor / Recovered in donor compartment / Recovered in skin / Recovered in skin outside diffusion area / Recovered in skin swabs / Recovered on parafilm and in washes: mass balance; for recovery at 8 h, 1 % w/v: pig, end of 8 h, read-out: Total recovery (mean percentage parent compound recovery)
# Procedure: In each Franz cell, a piece of pig ear skin prepared to a thickness of […] was clamped securely. 5 mL of PBS solution was added to the receiver compartment which was purged of air bubbles to ensure maximal contact of the skin piece with the solution. Donor solution was prepared by dissolving N1-N13 in deionized water at 1% w/v, and 900 μL was added to the donor compartment. The study was conducted for 8 h, and aliquots of 200 μL were removed from the receiver solution and topped up with fresh PBS at each timepoint of 15-minutes intervals for the first hour and every hour after that.
# For mass balance, at the end of 8 h, skin pieces and swabs of the top and bottom surface of the skin were collected and stored in ACN for N1-N13 extraction. Donor solution and receiver solution were also collected.
# The aliquot samples collected were subjected to 2-step extraction using 750 μL of dichloromethane (DCM). […] The solvent was dried using the TurboVap, and then reconstituted with 198 μL of 0.1% formic acid in 50% methanol in water and spiked with 2 μL of ANP (internal standard). The processed aliquot samples and mass balance samples were then sent for analysis using LC-MS/MS. The compounds' steady state fluxes and permeability coefficients were then calculated by fitting the solution to Fick's […] of diffusion at the steady state (linear part) of each experimental cumulative amount curve.
# Hair nuance test = experiment: Hair nuance test; parameters: key to L* / a* / b*: CIELAB L*, a*, b* coordinates; key to ΔE (total colour difference to natural hair): ΔE = √((L*−L0)²+(a*−a0)²+(b*−b0)²) vs untreated hair; details: for eventual colour of bleached hair, Type B: Type B (Oxidative, H2O2) formulation; for eventual colour of bleached hair, Type C: Type C (Oxidative with coupler resorcinol) formulation; for eventual colour of bleached hair, Type A: Type A (Non-oxidative) formulation
# Procedure: 35 g of bleaching powder was mixed with 50 mL of developer then applied onto undyed black hair (wrapped in aluminium foil to enhance the bleaching process) and left on for 45 min. The hair was then rinsed with deionized water and shampoo and left to dry. This process was repeated twice.
# Hair dye formulations were prepared from N1-N13 according to methods reported (New Journal of Chemistry. 2019; 43(41):16188-99), and with the compositions stated in Table 11 Bleached hair samples were immersed into the respective formulations for 20 min, then air dried for 20 min. Then they were shampooed twice and treated with conditioner for 5 min.
# SkinColorCatch (Delfin Technologies Ltd, Kuopio, Finland) was used to measure CIELAB tristimulus L*, a* and b* values of the dyed hair samples and baseline L0, a0, b0 values from untreated hair. The difference in colour tone (ΔH) and the total colour difference (ΔE) were then derived from the values obtained with the equations below:
# ΔH=√{square root over ((a*−a0)^2+(b*−b0)^2)}
# ΔE=√{square root over ((L*−L0)^2+(a*−a0)^2+(b*−b0)^2)}
# IL-1α = IL-1α release assay (ELISA) in THP-1 cells; assay type: cell-based, human; details: 24 h; for release of IL-1α: CV75 dose
# Procedure: (§1) CV75 values (concentration showing 75% of THP-1 cell survival) were determined as per the procedure described above in section A of this method. The IL-8 and IL-1α release assay was performed as described in Toxicol In Vitro. 2003, 17(3), 311-321. A Chemokine immunosorbent assay Bio-legend ELISA Max kit was used to quantify the levels of available IL-8 and IL-1α protein. The supernatant media of untreated THP-1 cells was treated with standards, test samples N1-N13 and DMSO in 96 well plate and then was recovered after 24 h of culture. IL-8 and IL-1α was measured by ELISA in 96-well microtiter plates according to the manufacturer protocol (Biolegend, ELISA MAX™, Singapore).
# IL-8 = IL-8 release assay (ELISA) in THP-1 cells; assay type: cell-based, human; details: CV75 dose, 24 h
# Procedure: as §1
# [2] = Type C (Oxidative with coupler resorcinol)
smiles,measurement,setting,value
"Nc1ccc(N)c(OCC2CO2)c1 (centres unmarked) [Compound N4, 2-(oxiran-2-ylmethoxy)benzene-1,4-diamine]",Cumulative amount at 8th hour,[1],0.0104 μg/cm^2
same,Permeated through skin into receptor,[1],<0.001 % of applied compound dose
same,Recovered in donor compartment,[1],98.9 % of applied compound dose
same,Recovered in skin,[1],0.02 % of applied compound dose
same,Recovered in skin outside diffusion area,[1],0.005 % of applied compound dose
same,Recovered in skin swabs,[1],0.03 % of applied compound dose
same,Recovered on parafilm and in washes,[1],0.008 % of applied compound dose
same,"recovery at 8 h, 1 % w/v",[1],99 ± 1.15%
same,L*,Hair nuance test; Type A (Non-oxidative),49
same,a*,Hair nuance test; Type A (Non-oxidative),5
same,b*,Hair nuance test; Type A (Non-oxidative),29
same,ΔE (total colour difference to natural hair),Hair nuance test; Type A (Non-oxidative),49.1
same,ΔH (difference in colour tone),Hair nuance test; Type A (Non-oxidative),28.4
same,L*,Hair nuance test; Type B (Oxidative),40
same,a*,Hair nuance test; Type B (Oxidative),6
same,b*,Hair nuance test; Type B (Oxidative),16
same,ΔE (total colour difference to natural hair),Hair nuance test; Type B (Oxidative),35.0
same,ΔH (difference in colour tone),Hair nuance test; Type B (Oxidative),16.2
same,"eventual colour of bleached hair, Type B",Hair nuance test,Coffee brown
same,L*,Hair nuance test; [2],22
same,a*,Hair nuance test; [2],1
same,b*,Hair nuance test; [2],−13
same,ΔE (total colour difference to natural hair),Hair nuance test; [2],19.1
same,ΔH (difference in colour tone),Hair nuance test; [2],14.0
same,"eventual colour of bleached hair, Type C",Hair nuance test,vibrant blue colours; also recorded: Admiral blue
same,"IL-1α release, times lower than PPD",IL-1α,7-8
same,release of IL-1α,IL-1α,slight release
"COCCOCCOc1cc(N)ccc1N [Compound N5, 2-[2-(2-methoxyethoxy)ethoxy]benzene-1,4-diamine]",Cumulative amount at 8th hour,[1],0.0065 μg/cm^2 and 0.00654 μg/cm^2
same,Cumulative amount comparison of PPD vs derivatives (times less than PPD),[1],825.0
same,Permeated through skin into receptor,[1],<0.001 % of applied compound dose
same,Recovered in donor compartment,[1],95.3 % of applied compound dose
same,Recovered in skin,[1],0.04 % of applied compound dose
same,Recovered in skin outside diffusion area,[1],0.0045 % of applied compound dose
same,Recovered in skin swabs,[1],0.06 % of applied compound dose
same,Recovered on parafilm and in washes,[1],0.009 % of applied compound dose
same,"recovery at 8 h, 1 % w/v",[1],95 ± 1.42%
same,release of IL-8,IL-8,slight elevation; also recorded: marginal release
same,L*,Hair nuance test; Type A (Non-oxidative),18
same,a*,Hair nuance test; Type A (Non-oxidative),4
same,b*,Hair nuance test; Type A (Non-oxidative),−1
same,ΔE (total colour difference to natural hair),Hair nuance test; Type A (Non-oxidative),10.0
same,ΔH (difference in colour tone),Hair nuance test; Type A (Non-oxidative),4.5
same,"eventual colour of bleached hair, Type A",Hair nuance test,dark brown colour shade; also recorded: Dark cinnamon brown
same,L*,Hair nuance test; Type B (Oxidative),26
same,a*,Hair nuance test; Type B (Oxidative),3.7
same,b*,Hair nuance test; Type B (Oxidative),10.3
same,ΔE (total colour difference to natural hair),Hair nuance test; Type B (Oxidative),19.7
same,ΔH (difference in colour tone),Hair nuance test; Type B (Oxidative),10.0
same,"eventual colour of bleached hair, Type B",Hair nuance test,Almond brown
same,L*,Hair nuance test; [2],16
same,a*,Hair nuance test; [2],0
same,b*,Hair nuance test; [2],−6.7
same,ΔE (total colour difference to natural hair),Hair nuance test; [2],10.4
same,ΔH (difference in colour tone),Hair nuance test; [2],7.7
same,"eventual colour of bleached hair, Type C",Hair nuance test,vibrant blue colours; also recorded: Indigo
same,release of IL-1α,IL-1α,slight elevation; also recorded: marginal release
"N#CCOc1cc(N)ccc1N [Compound N6, 2-(2,5-diaminophenoxy)acetonitrile]",Cumulative amount at 8th hour,[1],0.0145 μg/cm^2
same,Permeated through skin into receptor,[1],<0.001 % of applied compound dose
same,Recovered in donor compartment,[1],99.1 % of applied compound dose
same,Recovered in skin,[1],0.01 % of applied compound dose
same,Recovered in skin outside diffusion area,[1],0.006 % of applied compound dose
same,Recovered in skin swabs,[1],0.04 % of applied compound dose
same,Recovered on parafilm and in washes,[1],0.002 % of applied compound dose
same,release of IL-8,IL-8,did not release significant amounts
same,L*,Hair nuance test; Type A (Non-oxidative),55.0
same,a*,Hair nuance test; Type A (Non-oxidative),10.0
same,b*,Hair nuance test; Type A (Non-oxidative),19.0
same,ΔE (total colour difference to natural hair),Hair nuance test; Type A (Non-oxidative),50.3
same,ΔH (difference in colour tone),Hair nuance test; Type A (Non-oxidative),20.5
same,"eventual colour of bleached hair, Type A",Hair nuance test,light colours; also recorded: Rose pink
same,L*,Hair nuance test; Type B (Oxidative),15
same,a*,Hair nuance test; Type B (Oxidative),4
same,b*,Hair nuance test; Type B (Oxidative),5
same,ΔE (total colour difference to natural hair),Hair nuance test; Type B (Oxidative),8.2
same,ΔH (difference in colour tone),Hair nuance test; Type B (Oxidative),5.6
same,"eventual colour of bleached hair, Type B",Hair nuance test,Dark brown
same,L*,Hair nuance test; [2],13
same,a*,Hair nuance test; [2],5
same,b*,Hair nuance test; [2],4
same,ΔE (total colour difference to natural hair),Hair nuance test; [2],7.1
same,ΔH (difference in colour tone),Hair nuance test; [2],5.8
same,"eventual colour of bleached hair, Type C",Hair nuance test,Brownish black
same,release of IL-1α,IL-1α,did not release significant amounts
"CC(O)COc1cc(N)ccc1N (centres unmarked) [Compound N10, 1-(2,5-diaminophenoxy)propan-2-ol]",Cumulative amount at 8th hour,[1],0.008 μg/cm^2
same,Cumulative amount comparison of PPD vs derivatives (times less than PPD),[1],633
same,Permeated through skin into receptor,[1],<0.001 % of applied compound dose
same,Recovered in donor compartment,[1],95.0 % of applied compound dose
same,Recovered in skin,[1],0.04 % of applied compound dose
same,Recovered in skin outside diffusion area,[1],0.003 % of applied compound dose
same,Recovered in skin swabs,[1],0.05 % of applied compound dose
same,Recovered on parafilm and in washes,[1],0.006 % of applied compound dose
same,"recovery at 8 h, 1 % w/v",[1],95.1 ± 1.4%
same,L*,Hair nuance test; Type A (Non-oxidative),25
same,a*,Hair nuance test; Type A (Non-oxidative),12
same,b*,Hair nuance test; Type A (Non-oxidative),6
same,ΔE (total colour difference to natural hair),Hair nuance test; Type A (Non-oxidative),20.61
same,ΔH (difference in colour tone),Hair nuance test; Type A (Non-oxidative),4.53
same,"eventual colour of bleached hair, Type A",Hair nuance test,Brownish Purple
same,L*,Hair nuance test; Type B (Oxidative),11
same,a*,Hair nuance test; Type B (Oxidative),1
same,b*,Hair nuance test; Type B (Oxidative),−2
same,ΔE (total colour difference to natural hair),Hair nuance test; Type B (Oxidative),3.74
same,ΔH (difference in colour tone),Hair nuance test; Type B (Oxidative),1.93
same,"eventual colour of bleached hair, Type B",Hair nuance test,black colour
same,L*,Hair nuance test; [2],30
same,a*,Hair nuance test; [2],18
same,b*,Hair nuance test; [2],18
same,ΔE (total colour difference to natural hair),Hair nuance test; [2],32.46
same,ΔH (difference in colour tone),Hair nuance test; [2],5.69
same,"eventual colour of bleached hair, Type C",Hair nuance test,Brown

# — patent publication US20240197596A1, “COMPOUNDS USEFUL AS HAIR DYES” (National University of Singapore, priority 2021, published 2024)
